Test results published in patent publication US11427548B2 (Arvinas Operations, Inc., priority 2015, dated 2022).
Read-outs that look alike come from different tables or passages of the source.

Molecular target: T1, Androgen Receptor (Homo sapiens, UniProt P10275)
T1 construct: endogenous in cells; host or cells: VCaP cells
T1 sequence (P10275 1-920): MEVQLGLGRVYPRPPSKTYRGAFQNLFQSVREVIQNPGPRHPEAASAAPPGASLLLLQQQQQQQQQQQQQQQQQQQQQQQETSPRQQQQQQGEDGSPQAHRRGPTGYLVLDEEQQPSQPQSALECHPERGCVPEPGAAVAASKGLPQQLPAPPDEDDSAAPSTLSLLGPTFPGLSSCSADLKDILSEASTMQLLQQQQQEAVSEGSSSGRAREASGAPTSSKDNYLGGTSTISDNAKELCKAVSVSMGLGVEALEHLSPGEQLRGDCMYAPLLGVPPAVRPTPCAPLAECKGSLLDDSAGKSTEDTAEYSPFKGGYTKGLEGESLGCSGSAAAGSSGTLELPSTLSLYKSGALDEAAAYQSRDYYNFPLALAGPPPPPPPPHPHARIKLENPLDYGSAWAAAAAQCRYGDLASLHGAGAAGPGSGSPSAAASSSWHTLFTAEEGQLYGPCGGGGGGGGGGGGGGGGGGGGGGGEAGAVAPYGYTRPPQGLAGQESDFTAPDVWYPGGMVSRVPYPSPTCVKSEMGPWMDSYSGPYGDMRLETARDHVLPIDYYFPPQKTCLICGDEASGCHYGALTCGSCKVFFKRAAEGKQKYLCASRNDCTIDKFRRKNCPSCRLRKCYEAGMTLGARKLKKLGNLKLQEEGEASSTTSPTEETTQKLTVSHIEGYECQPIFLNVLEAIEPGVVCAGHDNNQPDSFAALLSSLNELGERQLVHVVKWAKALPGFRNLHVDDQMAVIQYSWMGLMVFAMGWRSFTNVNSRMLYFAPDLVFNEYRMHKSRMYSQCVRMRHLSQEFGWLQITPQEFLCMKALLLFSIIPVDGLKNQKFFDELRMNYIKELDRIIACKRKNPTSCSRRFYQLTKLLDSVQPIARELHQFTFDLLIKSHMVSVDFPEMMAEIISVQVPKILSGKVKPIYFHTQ
Assay: Androgen Receptor ELISA assay (PathScan AR ELISA) in VCaP cells: AR degradation, Dmax and DC50
Assay type: cell-based
Method in brief: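 VCaP cells, 30,000/well, grown ≥3 days in phenol red-free RPMI with 5% charcoal-stripped FBS; compound added in 0.1% DMSO with 0.1 nM R1881, 7 half-log doses, 24 h. Lysate AR quantified by PathScan sandwich ELISA, HRP/TMB read at 450 nm, giving DC50 and Dmax.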

[1] = VCaP cells; Table 36; read-out: VCaP DC50
[2] = VCaP, VCaP cells; Table 36; read-out: VCaP Dmax (%)
[3] = read-out: VCaP DC50; VCaP cells; Table 36

| SMILES | DC50 [1] [nM] | Dmax [2] [%] | Dmax (VCaP, read-out: VCaP Dmax (%)) [%] | DC50 [3] [nM] |
| --- | --- | --- | --- | --- |
| Cc1ncsc1-c1ccc(C(CO)NC(=O)[C@@H]2CC(O)CN2C(=O)[C@@H](NC(=O)CN2CCN(CCN3CCN(c4ccc(C(=O)NC5C(C)(C)C(Oc6ccc(C#N)c(Cl)c6)C5(C)C)cn4)CC3)CC2)C(C)(C)C)cc1 (stereo partly drawn) [Example 834, N-((1r,3r)-3-(3-chloro-4-cyanophenoxy)-2,2,4,4-tetramethylcyclobutyl)-6-(4-(2-(4-(2-(((S)-1-((2S,4R)-4-hydroxy-2-(((R)-2-hydroxy-1-(4-(4-methylthiazol-5-yl)phenyl)ethyl)carbamoyl)pyrrolidin-1-yl)-3,3-dimethyl-1-oxobutan-2-yl)amino)-2-oxoethyl)piperazin-1-yl)ethyl)piperazin-1-yl)nicotinamide] | < 50 | > 71 | – | – |
| Cc1ncsc1-c1ccc([C@H](C)NC(=O)C2C[C@@H](O)CN2C(=O)C(NC(=O)CN2C3CCC2CN(CCCCc2ccc(C(=O)N[C@H]4C(C)(C)[C@H](Oc5ccc(C#N)c(Cl)c5)C4(C)C)cc2)C3)C(C)(C)C)cc1 (stereo partly drawn) [Example 835, (2S,4R)-1-((2S)-2-(2-(3-(4-(4-(((1r,3r)-3-(3-chloro-4-cyanophenoxy)-2,2,4,4-tetramethylcyclobutyl)carbamoyl)phenyl)butyl)-3,8-diazabicyclo[3.2.1]octan-8-yl)acetamido)-3,3-dimethylbutanoyl)-4-hydroxy-N-((S)-1-(4-(4-methylthiazol-5-yl)phenyl)ethyl) pyrrolidine-2-carboxamide] | – | – | > 71 | < 50 |
| Cc1ncsc1-c1ccc([C@H](CO)NC(=O)[C@@H]2C[C@@H](O)CN2C(=O)[C@@H](NC(=O)CN2C3CCC2CN(CCCCc2ccc(C(=O)N[C@H]4C(C)(C)[C@H](Oc5ccc(C#N)c(Cl)c5)C4(C)C)cc2)C3)C(C)(C)C)cc1 [Example 836, (2S,4R)-1-((2S)-2-(2-(3-(4-(4-(((1r,3r)-3-(3-chloro-4-cyanophenoxy)-2,2,4,4-tetramethylcyclobutyl)carbamoyl)phenyl)butyl)-3,8-diazabicyclo[3.2.1]octan-8-yl)acetamido)-3,3-dimethylbutanoyl)-4-hydroxy-N-((R)-2-hydroxy-1-(4-(4-methylthiazol-5-yl)phenyl)ethyl) pyrrolidine-2-carboxamide] | – | – | > 71 | < 50 |
| Cc1ncsc1-c1ccc([C@H](C)NC(=O)[C@@H]2C[C@@H](O)CN2C(=O)[C@@H](NC(=O)CN2CCN(CCCc3ccc(C(=O)N[C@H]4C(C)(C)[C@H](Oc5ccc(C#N)c(Cl)c5)C4(C)C)cn3)CC2)C(C)(C)C)cc1 [Example 837, N-((1r,3r)-3-(3-chloro-4-cyanophenoxy)-2,2,4,4-tetramethylcyclobutyl)-6-(3-(4-(2-(((S)-1-((2S, 4R)-4-hydroxy-2-(((S)-1-(4-(4-methylthiazol-5-yl)phenyl)ethyl)carbamoyl)pyrrolidin-1-yl)-3,3-dimethyl-1-oxobutan-2-yl)amino)-2-oxoethyl)piperazin-1-yl)propyl) nicotinamide] | < 50 | > 71 | – | – |
| Cc1ncsc1-c1ccc([C@H](C)NC(=O)[C@@H]2C[C@@H](O)CN2C(=O)C(c2cc(CCN3CCN(c4ccc(C(=O)N[C@H]5C(C)(C)[C@H](Oc6ccc(C#N)c(Cl)c6)C5(C)C)cn4)CC3)no2)C(C)C)cc1 (stereo partly drawn) [Example 838, N-((1r,3r)-3-(3-chloro-4-cyanophenoxy)-2,2,4,4-tetramethylcyclobutyl)-6-(4-(2-(5-(1-((2S,4R)-4-hydroxy-2-(((S)-1-(4-(4-methylthiazol-5-yl)phenyl)ethyl)carbamoyl)pyrrolidin-1-yl)-3-methyl-1-oxobutan-2-yl)isoxazol-3-yl)ethyl)piperazin-1-yl) nicotinamide] | < 50 | 51 to 70 | – | – |
| Cc1ncsc1-c1ccc([C@H](C)NC(=O)[C@@H]2C[C@@H](O)CN2C(=O)[C@@H](NC(=O)CN2C3CCC2CN(CCCc2ccc(C(=O)N[C@H]4C(C)(C)[C@H](Oc5ccc(C#N)c(Cl)c5)C4(C)C)cn2)C3)C(C)(C)C)cc1 [Example 839, N-((1r,3r)-3-(3-chloro-4-cyanophenoxy)-2,2,4,4-tetramethylcyclobutyl)-6-(3-(8-(2-(((S)-1-((2S, 4R)-4-hydroxy-2-(((S)-1-(4-(4-methylthiazol-5-yl)phenyl)ethyl)carbamoyl)pyrrolidin-1-yl)-3,3-dimethyl-1-oxobutan-2-yl)amino)-2-oxoethyl)-3,8-diazabicyclo[3.2.1]octan-3-yl)propyl) nicotinamide] | – | – | 51 to 70 | < 50 |
| Cc1ncsc1-c1ccc([C@H](C)NC(=O)C2C[C@@H](O)CN2C(=O)C(NC(=O)CN2C3CCC2CN(CCCCc2ccc(C(=O)N[C@H]4C(C)(C)[C@H](Oc5ccc(C#N)c(Cl)c5)C4(C)C)cn2)C3)C(C)(C)C)cc1 (stereo partly drawn) [Example 840, N-((1r,3r)-3-(3-chloro-4-cyanophenoxy)-2,2,4,4-tetramethylcyclobutyl)-6-(4-(8-(2-(((S)-1-((2S, 4R)-4-hydroxy-2-(((S)-1-(4-(4-methylthiazol-5-yl)phenyl)ethyl)carbamoyl)pyrrolidin-1-yl)-3,3-dimethyl-1-oxobutan-2-yl)amino)-2-oxoethyl)-3,8-diazabicyclo[3.2.1]octan-3-yl)butyl) nicotinamide] | – | – | > 71 | < 50 |
| Cc1ncsc1-c1ccc([C@H](CO)NC(=O)[C@@H]2C[C@@H](O)CN2C(=O)[C@@H](NC(=O)CN2CCN(CCC3CCN(c4ccc(C(=O)N[C@H]5C(C)(C)[C@H](Oc6ccc(C#N)c(Cl)c6)C5(C)C)cn4)C3)CC2)C(C)(C)C)cc1 (stereo partly drawn) [Example 841, N-((1r,3r)-3-(3-chloro-4-cyanophenoxy)-2,2,4,4-tetramethylcyclobutyl)-6-(3-(2-(4-(2-(((S)-1-((2S,4R)-4-hydroxy-2-(((R)-2-hydroxy-1-(4-(4-methylthiazol-5-yl)phenyl)ethyl)carbamoyl)pyrrolidin-1-yl)-3,3-dimethyl-1-oxobutan-2-yl)amino)-2-oxoethyl)piperazin-1-yl)ethyl)pyrrolidin-1-yl)nicotinamide] | < 50 | – | > 71 | – |
| Cc1ncsc1-c1ccc([C@H](C)NC(=O)[C@@H]2C[C@@H](O)CN2C(=O)[C@@H](NC(=O)COC2CN(CCNc3ccc(C(=O)N[C@H]4C(C)(C)[C@H](Oc5ccc(C#N)c(Cl)c5)C4(C)C)cn3)C2)C(C)(C)C)cc1 [Example 842, N-((1r,3r)-3-(3-chloro-4-cyanophenoxy)-2,2,4,4-tetramethylcyclobutyl)-6-((2-(3-(2-(((S)-1-((2S,4R)-4-hydroxy-2-(((S)-1-(4-(4-methylthiazol-5-yl)phenyl)ethyl)carbamoyl)pyrrolidin-1-yl)-3,3-dimethyl-1-oxobutan-2-yl)amino)-2-oxoethoxy)azetidin-1-yl)ethyl)amino) nicotinamide] | < 50 | 26 to 50 | – | – |
| Cc1ncsc1-c1ccc([C@H](C)NC(=O)C2C[C@@H](O)CN2C(=O)C(NC(=O)CN2CCN(CCN3CCN(c4ccc(C(=O)NC5C(C)(C)C(Oc6ccc(C#N)c(Cl)c6)C5(C)C)cn4)C[C@H]3CO)CC2)C(C)(C)C)cc1 (stereo partly drawn) [Example 843, N-((1r,3S)-3-(3-chloro-4-cyanophenoxy)-2,2,4,4-tetramethylcyclobutyl)-6-((S)-4-(2-(4-(2-(((S)-1-((2S,4R)-4-hydroxy-2-(((S)-1-(4-(4-methylthiazol-5-yl)phenyl)ethyl)carbamoyl)pyrrolidin-1-yl)-3,3-dimethyl-1-oxobutan-2-yl)amino)-2-oxoethyl)piperazin-1-yl)ethyl)-3-(hydroxymethyl)piperazin-1-yl) nicotinamide] | < 50 | 51 to 70 | – | – |
| Cc1ncsc1-c1ccc([C@H](C)NC(=O)[C@@H]2C[C@@H](O)CN2C(=O)[C@@H](NC(=O)CO[C@H]2C[C@@H](N3CCN(c4ccc(C(=O)N[C@H]5C(C)(C)[C@H](Oc6ccc(C#N)c(Cl)c6)C5(C)C)cn4)CC3)C2)C(C)(C)C)cc1 [Example 845, N-((1r,3R)-3-(3-chloro-4-cyanophenoxy)-2,2,4,4-tetramethylcyclobutyl)-6-(4-((1R,3S)-3-(2-(((S)-1-((2S,4R)-4-hydroxy-2-(((S)-1-(4-(4-methylthiazol-5-yl)phenyl)ethyl)carbamoyl)pyrrolidin-1-yl)-3,3-dimethyl-1-oxobutan-2-yl)amino)-2-oxoethoxy)cyclobutyl)piperazin-1-yl)nicotinamide] | < 50 | > 71 | – | – |
